Some test systems named below: SK-MEL-28 melanoma; IGROV1 ovarian; A498 renal; RPMI-8226 leukemia; SF-268 CNS; SK-MEL-5 melanoma; SNB-75 CNS; HCC-2998 colon; RXF 393 renal; K-562 leukemia.
What all share (assay): DTP human tumour cell line panel, 48 h

By TGI is commonly meant the concentration at which net growth stops. A high value points to lower sensitivity of the cells. The term GI50 denotes the concentration at which growth is held to half of that of the control.

Where “and” joins values, the source holds several entries; their conditions need not be identical. Identical values can stand only once.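 Test compounds were applied to cells in 96-well plates for 48 hours at 5 doses. GI50 is the concentration that inhibits growth by half. TGI: concentration producing complete growth inhibition.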

Turning to `CC12CCC(O)CC1CCC1C2CCC2(C)C(C3=CC(=O)OC3)CCC12O` (stereo not drawn), the TGI in the experiment with SK-MEL-28 melanoma was 33.7 µM; with IGROV1 ovarian, 19.4 µM; with A498 renal, 25.6 µM; in the experiment with RPMI-8226 leukemia, more than 30 µM; in the experiment with SF-268 CNS it was 7.07 µM; in the experiment with SK-MEL-5 melanoma, 1.98 µM. Besides, the TGI with SNB-75 CNS is 28.7 µM; in the experiment on HCC-2998 colon, 10.2 µM; in the experiment on RXF 393 renal, 3.55 µM; in the experiment on K-562 leukemia, more than 90.5 µM.

In the case of `CCCCCN(CCCCC)CC(O)c1cc(C)c2ccc3cc(C(C)C)ccc3c2c1` (stereo not drawn), the GI50 with SK-MEL-28 melanoma was 1.76 µM; in the experiment with IGROV1 ovarian, 1.79 µM; with A498 renal, 1.56 µM; in the experiment with RPMI-8226 leukemia it was 2.11 µM; with SF-268 CNS it was 2.14 µM; in the experiment on SK-MEL-5 melanoma, 1.83 µM. The GI50 in the experiment with SNB-75 CNS is 1.31 µM; in the experiment with HCC-2998 colon it was 1.85 µM; in the experiment with RXF 393 renal, 1.57 µM; with K-562 leukemia, 2.17 µM. Besides, the TGI was determined as 3.27 µM in the experiment with SK-MEL-28 melanoma; 3.47 µM in the experiment with IGROV1 ovarian; 2.94 µM in the experiment with A498 renal; 4.81 µM in the experiment with RPMI-8226 leukemia; 4.26 µM in the experiment on SF-268 CNS; 3.62 µM in the experiment with SK-MEL-5 melanoma. The TGI was determined as 2.65 µM with SNB-75 CNS, 3.4 µM with HCC-2998 colon, 3.1 µM in the experiment on RXF 393 renal and 4.46 µM in the experiment on K-562 leukemia.

`O=C(Nc1ccc(Cl)c(Cl)c1)Nc1ccc(Cl)c(Cl)c1`: the GI50 in the experiment with SK-MEL-28 melanoma is 3.24 µM and 4.13 µM; in the experiment on IGROV1 ovarian it was 4.2 µM and 3.36 µM; in the experiment with RPMI-8226 leukemia, 1.79 µM and 0.997 µM; in the experiment with SF-268 CNS, 3.92 µM and 3.88 µM; in the experiment with SK-MEL-5 melanoma it was 1.74 µM and 1.77 µM; with SNB-75 CNS, 2.15 µM and 2.85 µM. Further, the GI50 with HCC-2998 colon is 3.71 µM and 3.01 µM; in the experiment with RXF 393 renal it was 2.81 µM and 2.57 µM; in the experiment on K-562 leukemia it was 3.39 µM and 1.97 µM. The TGI was 14.2 µM and > 100 µM with SK-MEL-28 melanoma; 22.2 µM and 10.5 µM with IGROV1 ovarian; 2.79 µM and 5.18 µM in the experiment on A498 renal; 6.99 µM and 5.33 µM in the experiment on RPMI-8226 leukemia; 15.1 µM and 14.5 µM in the experiment with SF-268 CNS; 3.35 µM and 3.18 µM with SK-MEL-5 melanoma. For the same compound, the TGI is 7.81 µM and 18.8 µM with SNB-75 CNS; 13.4 µM and 11.5 µM in the experiment with HCC-2998 colon; 11.6 µM and 6.57 µM in the experiment with RXF 393 renal; 19.8 µM and 9.9 µM in the experiment on K-562 leukemia.

`O=C(Nc1ccccc1OC(F)(F)F)Nc1n[nH]c2ccccc12`: the GI50 was 42.2 µM with SK-MEL-28 melanoma; 4.59 µM in the experiment with IGROV1 ovarian; more than 100 µM in the experiment on A498 renal; 5.2 µM with RPMI-8226 leukemia; 16.2 µM in the experiment on SF-268 CNS; 28.7 µM with SK-MEL-5 melanoma. Moreover, the GI50 was 17.5 µM with SNB-75 CNS, 55.9 µM in the experiment on HCC-2998 colon, 24.4 µM in the experiment with RXF 393 renal and 47.2 µM in the experiment with K-562 leukemia. Further, the TGI was more than 100 µM with SK-MEL-28 melanoma; 83.6 µM with IGROV1 ovarian; more than 100 µM in the experiment with A498 renal; 53.1 µM in the experiment on RPMI-8226 leukemia; more than 100 µM in the experiment on SF-268 CNS; more than 100 µM in the experiment with SK-MEL-5 melanoma. Also, the TGI was 49.8 µM in the experiment on SNB-75 CNS, more than 100 µM with HCC-2998 colon, more than 100 µM in the experiment on RXF 393 renal and more than 100 µM in the experiment with K-562 leukemia.

In the case of `CC1(c2ccc(F)cc2)C(C#N)C(=O)NC(=O)C1C#N` (stereo not drawn), the TGI with SK-MEL-28 melanoma, with IGROV1 ovarian, in the experiment with A498 renal, with RPMI-8226 leukemia, in the experiment with SF-268 CNS and with SK-MEL-5 melanoma was more than 100 µM each time. Besides, the TGI with SNB-75 CNS, in the experiment with HCC-2998 colon, in the experiment on RXF 393 renal and in the experiment on K-562 leukemia was more than 100 µM throughout.

In the case of `O=S1(=O)c2ccccc2NC(c2ccc3ccccc3c2)CC1c1ccccc1F` (stereo not drawn), the TGI in the experiment on SK-MEL-28 melanoma, in the experiment with IGROV1 ovarian, in the experiment with A498 renal, in the experiment with RPMI-8226 leukemia, in the experiment with SF-268 CNS and in the experiment on SK-MEL-5 melanoma was more than 100 µM in each case. Further, the TGI in the experiment on SNB-75 CNS, in the experiment on HCC-2998 colon, with RXF 393 renal and in the experiment with K-562 leukemia was more than 100 µM each time.

As for `COC(=O)[C@@H]1[C@H](O)[C@H](C)[C@H](O)[C@@](C)(O)/C=C\C=C(C)C(=O)Nc2c(C)c(OC(C)=O)c3c(c2O)C(=O)C(C)=C2OCOC(=C23)C(C)=C[C@@](C)(O)[C@H](O)[C@@H](C)[C@H]1OC(C)=O`, the TGI was more than 100 µM with SK-MEL-28 melanoma; > 100 µM and 66.9 µM in the experiment on IGROV1 ovarian; more than 100 µM in the experiment with A498 renal; > 100 µM and 66.9 µM and 96.5 µM with RPMI-8226 leukemia; more than 100 µM in the experiment on SF-268 CNS; > 100 µM and 66.9 µM and 38.4 µM with SK-MEL-5 melanoma. Besides, the TGI is more than 100 µM with SNB-75 CNS; > 100 µM and 66.9 µM with HCC-2998 colon; more than 100 µM with RXF 393 renal; > 100 µM and 66.9 µM in the experiment with K-562 leukemia. Moreover, the GI50 in the experiment on RPMI-8226 leukemia is 24.1 µM; in the experiment on SF-268 CNS it was more than 66.9 µM; in the experiment with SK-MEL-5 melanoma it was 20.5 µM; with HCC-2998 colon, 11.1 µM; in the experiment on K-562 leukemia it was 32.4 µM.

For the compound `O=C1C(=O)N(c2ccc(Cl)cc2Cl)C(=O)C(=O)C1c1nc2ccccc2s1`, the TGI in the experiment on SK-MEL-28 melanoma, with IGROV1 ovarian, in the experiment with A498 renal, in the experiment with RPMI-8226 leukemia, in the experiment on SF-268 CNS and in the experiment on SK-MEL-5 melanoma was more than 100 µM each time. Further, the TGI with SNB-75 CNS is 81.8 µM; in the experiment with HCC-2998 colon it was more than 100 µM; in the experiment with RXF 393 renal it was more than 100 µM; in the experiment on K-562 leukemia, more than 100 µM.

For `Cc1ccc(N=Nc2ccc(N(CCC#N)CCC#N)cc2C)c(Br)c1`, the TGI in the experiment with SK-MEL-28 melanoma is more than 100 µM; with IGROV1 ovarian, more than 100 µM; in the experiment with A498 renal, more than 100 µM; in the experiment with RPMI-8226 leukemia it was 35.8 µM; with SF-268 CNS, more than 100 µM; in the experiment with SK-MEL-5 melanoma it was 56.5 µM. In addition, the TGI with SNB-75 CNS is more than 100 µM; in the experiment on HCC-2998 colon it was 59.4 µM; in the experiment on RXF 393 renal it was 46.1 µM; in the experiment with K-562 leukemia, more than 100 µM.

Consider `COc1ccc2c(c1)/C(=C/c1c(C)nc3sc(C)nn13)C(=O)N2`, for which the GI50 with SK-MEL-28 melanoma was 5.29 µM; in the experiment with IGROV1 ovarian it was 2.18 µM; in the experiment with A498 renal, 3.07 µM; with RPMI-8226 leukemia it was 4.17 µM; with SF-268 CNS, 3.06 µM; in the experiment on SK-MEL-5 melanoma, 1.5 µM. The GI50 was 1.58 µM with SNB-75 CNS, 0.632 µM in the experiment on HCC-2998 colon, 17.6 µM in the experiment with RXF 393 renal and 0.394 µM in the experiment on K-562 leukemia. The TGI in the experiment on SK-MEL-28 melanoma was more than 100 µM; in the experiment on IGROV1 ovarian, more than 100 µM; with A498 renal, more than 50 µM; in the experiment with RPMI-8226 leukemia, more than 100 µM; with SF-268 CNS it was more than 50.5 µM; with SK-MEL-5 melanoma it was more than 100 µM. The TGI is 7.14 µM in the experiment on SNB-75 CNS, 7.86 µM in the experiment on HCC-2998 colon and more than 100 µM in the experiment on RXF 393 renal.
